Reference: patent publication US11440898B2, “Isoquinoline compounds, methods for their preparation, and therapeutic uses thereof in conditions associated with the alteration of the activity of beta galactosidase” (Minoryx Therapeutics S.L., priority 2016, dated 2022)

Biological target: T1, mutated beta-galactosidase (p.R60H canine GLB1) in GM11473 fibroblasts (Canis lupus familiaris, UniProt Q9TRY9, R60H)
T1 construct: host or cells: GM11473 canine GM1 gangliosidosis fibroblasts
T1 sequence (Q9TRY9 30-668 R60H): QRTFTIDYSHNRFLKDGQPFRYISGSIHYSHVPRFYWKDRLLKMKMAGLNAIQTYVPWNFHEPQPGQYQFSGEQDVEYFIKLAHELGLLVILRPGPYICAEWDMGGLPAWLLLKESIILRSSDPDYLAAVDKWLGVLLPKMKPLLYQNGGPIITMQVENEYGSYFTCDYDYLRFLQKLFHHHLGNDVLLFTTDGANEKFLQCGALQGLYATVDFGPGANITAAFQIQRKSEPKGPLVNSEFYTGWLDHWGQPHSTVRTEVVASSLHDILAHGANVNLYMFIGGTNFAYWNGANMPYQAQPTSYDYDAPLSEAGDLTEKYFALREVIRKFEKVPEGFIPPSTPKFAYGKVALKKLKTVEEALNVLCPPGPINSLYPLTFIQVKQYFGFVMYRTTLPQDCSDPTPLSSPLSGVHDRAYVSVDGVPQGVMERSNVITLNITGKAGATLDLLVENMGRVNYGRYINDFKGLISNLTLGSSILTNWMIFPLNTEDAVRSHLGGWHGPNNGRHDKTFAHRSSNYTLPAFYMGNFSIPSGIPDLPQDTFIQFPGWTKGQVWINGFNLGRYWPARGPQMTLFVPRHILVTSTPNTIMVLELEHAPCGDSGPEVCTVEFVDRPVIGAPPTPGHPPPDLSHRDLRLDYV
Test: Enhancement of β-galactosidase activity measured in GM1 fibroblasts (GM11473), 4-MU-β-D-galactopyranoside substrate
Type: cell-based
Parameters: key: Increase in comparison with non-treated of >2.5 fold is shown as A; Increase in comparison with non-treated of >1.7-2.5 fold is shown as B; Increase in comparison with non-treated of 1.2-1.7 fold is shown as C; D means that no increase compared with non-treated cells was detected in this method
Conditions: increase in β-galactosidase enzyme activity vs non-treated cells, concentrations between 6 and 50 μM, 4 days incubation
Method: The capacity of the Compounds of the Disclosure to enhance mutated beta-galactosidase activity levels in GM1 fibroblasts was assayed as follows.
Fibroblasts homozygous for a GM1 gangliosidosis missense mutation (GM11473) (canine fibroblasts homozygous for the GM1 gangliosidosis missense mutation p.R60H equivalent to human p.R59H mutation) were purchased from Coriell Institute for Medical Research (Camden, N.J., USA).
Fibroblasts were seeded at 4×10^4 cells per well in 12-well cell culture plates in Dulbecco's Modified Eagle's Media (DMEM) supplemented with 10% of fetal bovine serum (FBS), 1% penicillin/streptomycin (P/S) (Thermo Fisher Scientific, Waltham, Mass., USA) and incubated at 37° C., 5% CO2 overnight for cell attachment. Subsequently, cells were incubated in the absence or presence of the compounds at the desired concentration for 4 days. After incubation, cells were washed twice with phosphate-buffered saline (“PBS”) and detached using Trypsin-EDTA solution (Sigma Aldrich, St. Louis, Mo., USA) to prepare cell pellets. The pellets were stored at −80° C. until activity assays were performed.
β-Galactosidase activity in cell lysates was measured by using 4-Methylumbelliferyl-β-D-galactopyranoside substrate (Sigma Aldrich, St. Louis, Mo., USA). Briefly, lysates were resuspended in 200 μL of 0.9% NaCl containing 0.01% triton X-100 lysis buffer to promote membrane disruption. The cell suspension was sonicated and centrifuged to remove insoluble materials. Then, lysates were mixed with 4-MU-β-D-galactopyranoside in 100 mM citrate buffer (pH=4) and 100 mM NaCl for 60 min at 37° C. The reaction was terminated by adding 100 mM glycine-NaOH buffer (pH=10.7). The liberated 4-MU was measured on a GloMax Discover plate reader (Promega, Madison, Wis., USA) with excitation at 340 nm and emission at 460 nm. Protein quantification was determined using Pierce BCA Protein Assay Kit (Thermo Fisher Scientific, Waltham, Mass., USA). Measurements were interpolated in a 4-MU standard curve and normalized by protein quantity. Enzyme activities were expressed in treated cells as X-fold increase in comparison with non-treated cells (X=1 represents no enhancement).
The capacity of the Compounds of the Disclosure to produce an increase in β-galactosidase enzyme activity in canine GM1 fibroblasts bearing p.R60H canine GLB1 mutation at concentrations between 6 and 50 μM is denoted as follows: • Increase in comparison with non-treated of >2.5 fold is shown as A. • Increase in comparison with non-treated of >1.7-2.5 fold is shown as B. • Increase in comparison with non-treated of 1.2-1.7 fold is shown as C. • D means that no increase compared with non-treated cells was detected in this method. • ND means “not determined.”

For O=C(NCc1ccccc1)c1ccc(Nc2nccc3ccc(Cl)cc23)cn1 [Example 29, N-benzyl-5-((7-chloroisoquinolin-1-yl)amino)picolinamide], the “Activity in GM11473 fibroblasts” value was “A (Increase in comparison with non-treated of >2.5 fold is shown as A)”.

COc1ccc(CNC(=O)c2ccc(Nc3nccc4ccc(Cl)cc34)cn2)cc1 [Example 30, 5-((7-Chloroisoquinolin-1-yl)amino)-N-(4-methoxybenzyl)picolinamide] was tested, and the “Activity in GM11473 fibroblasts” value was “B (Increase in comparison with non-treated of >1.7-2.5 fold is shown as B)”.

In the case of COc1cccc(CNC(=O)c2ccc(Nc3nccc4ccc(Cl)cc34)cn2)c1 [Example 31, 5-((7-Chloroisoquinolin-1-yl)amino)-N-(3-methoxybenzyl)picolinamide], the “Activity in GM11473 fibroblasts” value is reported as “B (Increase in comparison with non-treated of >1.7-2.5 fold is shown as B)”.

With COc1ccc(CNC(=O)c2ccc(Nc3nccc4ccc(Cl)cc34)cn2)cc1OC [Example 32, 5-((7-Chloroisoquinolin-1-yl)amino)-N-(3,4-dimethoxybenzyl)picolinamide] the “Activity in GM11473 fibroblasts” value was “C (Increase in comparison with non-treated of 1.2-1.7 fold is shown as C)”.

For O=C(NC1CCc2ccccc2C1)c1ccc(Nc2nccc3ccc(Cl)cc23)cn1 (centres unmarked) [Example 34, 5-((7-Chloroisoquinolin-1-yl)amino)-N-(1,2,3,4-tetrahydronaphthalen-2-yl)picolinamide], the “Activity in GM11473 fibroblasts” value was “A (Increase in comparison with non-treated of >2.5 fold is shown as A)”.

For O=C(NCc1ccc2c(c1)OCCCO2)c1ccc(Nc2nccc3ccc(Cl)cc23)cn1 [Example 35, 5-((7-Chloroisoquinolin-1-yl)amino)-N-((3,4-dihydro-2H-benzo[b][1,4]dioxepin-7-yl)methyl)picolinamide], the “Activity in GM11473 fibroblasts” value was “C (Increase in comparison with non-treated of 1.2-1.7 fold is shown as C)”.

For O=C(NCc1ccc2c(c1)CCO2)c1ccc(Nc2nccc3ccc(Cl)cc23)cn1 [Example 36, 5-((7-Chloroisoquinolin-1-yl)amino)-N-((2,3-dihydrobenzofuran-5-yl)methyl)picolinamide], the “Activity in GM11473 fibroblasts” value was “C (Increase in comparison with non-treated of 1.2-1.7 fold is shown as C)”.

For O=C(NCc1ccc2c(c1)OCO2)c1ccc(Nc2nccc3ccc(Cl)cc23)cn1 [Example 37, N-(benzo[d][1,3]dioxol-5-ylmethyl)-5-((7-chloroisoquinolin-1-yl)amino)picolinamide], the “Activity in GM11473 fibroblasts” value was “D”.

In the case of O=C(NCCc1ccc2c(c1)OCCO2)c1ccc(Nc2nccc3ccc(Cl)cc23)cn1 [Example 38, 5-((7-Chloroisoquinolin-1-yl)amino)-N-(2-(2,3-dihydrobenzo[b][1,4]dioxin-6-yl)ethyl)picolinamide], the “Activity in GM11473 fibroblasts” value is reported as “D”.

O=C(NCc1ccc2c(c1)CCCO2)c1ccc(Nc2nccc3ccc(Cl)cc23)cn1 [Example 39, 5-((7-Chloroisoquinolin-1-yl)amino)-N-(chroman-6-ylmethyl)picolinamide] was tested, and the “Activity in GM11473 fibroblasts” value was “B (Increase in comparison with non-treated of >1.7-2.5 fold is shown as B)”.

For COc1ccc2c(c1)CCC(NC(=O)c1ccc(Nc3nccc4ccc(Cl)cc34)cn1)C2 (centres unmarked) [Example 40, 5-((7-Chloroisoquinolin-1-yl)amino)-N-(6-methoxy-1,2,3,4-tetrahydronaphthalen-2-yl)picolinamide], the “Activity in GM11473 fibroblasts” value was “B (Increase in comparison with non-treated of >1.7-2.5 fold is shown as B)”.

In the case of O=C(NCC1CCc2ccccc2C1)c1ccc(Nc2nccc3ccc(Cl)cc23)cn1 (centres unmarked) [Example 41, 5-((7-Chloroisoquinolin-1-yl)amino)-N-((1,2,3,4-tetrahydronaphthalen-2-yl)methyl)picolinamide], the “Activity in GM11473 fibroblasts” value is reported as “B (Increase in comparison with non-treated of >1.7-2.5 fold is shown as B)”.

In the case of COc1ccc2ccnc(Nc3ccc(C(=O)NC4CCc5ccccc5C4)nc3)c2c1 (centres unmarked) [Example 45, 5-((7-Methoxyisoquinolin-1-yl)amino)-N-(1,2,3,4-tetrahydronaphthalen-2-yl)picolinamide], the “Activity in GM11473 fibroblasts” value is reported as “C (Increase in comparison with non-treated of 1.2-1.7 fold is shown as C)”.

In the case of COc1ccc2c(c1)CCC(NC(=O)c1ccc(Nc3nccc4ccc(OC)cc34)cn1)C2 (centres unmarked) [Example 46, N-(6-methoxy-1,2,3,4-tetrahydronaphthalen-2-yl)-5-((7-methoxyisoquinolin-1-yl)amino)picolinamide], the “Activity in GM11473 fibroblasts” value is reported as “C (Increase in comparison with non-treated of 1.2-1.7 fold is shown as C)”.

COc1ccc2ccnc(Nc3ccc(C(=O)NCC4CCc5ccccc5C4)nc3)c2c1 (centres unmarked) [Example 47, 5-((7-Methoxyisoquinolin-1-yl)amino)-N-((1,2,3,4-tetrahydronaphthalen-2-yl)methyl)picolinamide] was tested, and the “Activity in GM11473 fibroblasts” value was “B (Increase in comparison with non-treated of >1.7-2.5 fold is shown as B)”.

In the case of N#Cc1ccc2ccnc(Nc3ccc(C(=O)NC4CCc5ccccc5C4)nc3)c2c1 (centres unmarked) [Example 48, 5-((7-Cyanoisoquinolin-1-yl)amino)-N-(1,2,3,4-tetrahydronaphthalen-2-yl)picolinamide], the “Activity in GM11473 fibroblasts” value is reported as “A (Increase in comparison with non-treated of >2.5 fold is shown as A)”.

For N#Cc1ccc2ccnc(Nc3ccc(C(=O)NCc4ccc5nsnc5c4)nc3)c2c1 [Example 50, N-(benzo[c][1,2,5]thiadiazol-5-ylmethyl)-5-((7-cyanoisoquinolin-1-yl)amino)picolinamide], the “Activity in GM11473 fibroblasts” value was “C (Increase in comparison with non-treated of 1.2-1.7 fold is shown as C)”.

In the case of O=C(NCC(c1cccnc1)N1CCCC1)c1ccc(Nc2nccc3ccc(Cl)cc23)nc1 (centres unmarked) [Example 53, 6-((7-Chloroisoquinolin-1-yl)amino)-N-(2-(pyridin-3-yl)-2-(pyrrolidin-1-yl)ethyl)nicotinamide], the “Activity in GM11473 fibroblasts” value is reported as “C (Increase in comparison with non-treated of 1.2-1.7 fold is shown as C)”.

With O=C(NCc1ccc2c(c1)OCCO2)c1ccc(Nc2nccc3ccc(Cl)cc23)nc1 [Example 54, 6-((7-Chloroisoquinolin-1-yl)amino)-N-((2,3-dihydrobenzo[b][1,4]dioxin-6-yl)methyl)nicotinamide] the “Activity in GM11473 fibroblasts” value was “C (Increase in comparison with non-treated of 1.2-1.7 fold is shown as C)”.

For O=C(NCc1ccccc1)c1ccc(Nc2nccc3ccc(Cl)cc23)nc1 [Example 55, N-benzyl-6-((7-chloroisoquinolin-1-yl)amino)nicotinamide], the “Activity in GM11473 fibroblasts” value was “C (Increase in comparison with non-treated of 1.2-1.7 fold is shown as C)”.

With COc1ccc(CNC(=O)c2ccc(Nc3nccc4ccc(Cl)cc34)nc2)cc1 [Example 56, 6-((7-Chloroisoquinolin-1-yl)amino)-N-(4-methoxybenzyl)nicotinamide] the “Activity in GM11473 fibroblasts” value was “D”.

With COc1cccc(CNC(=O)c2ccc(Nc3nccc4ccc(Cl)cc34)nc2)c1 [Example 57, 6-((7-Chloroisoquinolin-1-yl)amino)-N-(3-methoxybenzyl)nicotinamide] the “Activity in GM11473 fibroblasts” value was “C (Increase in comparison with non-treated of 1.2-1.7 fold is shown as C)”.

In the case of O=C(NCc1ccc2nsnc2c1)c1ccc(Nc2nccc3ccc(Cl)cc23)nc1 [Example 59, N-(benzo[c][1,2,5]thiadiazol-5-ylmethyl)-6-((7-chloroisoquinolin-1-yl)amino)nicotinamide], the “Activity in GM11473 fibroblasts” value is reported as “C (Increase in comparison with non-treated of 1.2-1.7 fold is shown as C)”.
